Source: patent US10626144B2, “Peptide derivatives and uses thereof” (Nosopharm, priority 2014, dated 2020)
Square brackets hold non-standard residues; d marks the D form. Peptide text beside a SMILES is read from it. * marks the point of attachment. ξ: configuration not given here. Abu(4,4,4-F3) = N[C@@H](CC(F)(F)F)C(=O)O; Oic(3aξ,7aξ) = O=C(O)[C@@H]1CC2CCCCC2N1; Phe(3-F) = N[C@@H](Cc1cccc(F)c1)C(=O)O; Dab(3S-OH) = NC[C@H](O)[C@H](N)C(=O)O; Lys(iPr) = CC(C)NCCCC[C@H](N)C(=O)O; 4Pal = N[C@@H](Cc1ccncc1)C(=O)O; ΔZArg = N=C(N)NCC/C=C(\N)C(=O)O; Lys(Me) = CNCCCC[C@H](N)C(=O)O; NMeK = CN[C@@H](CCCCN)C(=O)O; dOrn = NCCC[C@@H](N)C(=O)O; Orn = NCCC[C@H](N)C(=O)O; Aze = O=C(O)[C@@H]1CCN1; Dab = NCC[C@H](N)C(=O)O; NH(CH2)5NH2 = NCCCCCN*; NH(CH2)4NH2 = NCCCCN*

Assays:
Assay in all cases: MIC, broth microdilution (CLSI), reference strain
Conditions in all cases: CAMHB
[1] = tested on: Pseudomonas aeruginosa ATCC 27853
[2] = tested on: Acinetobacter baumannii ATCC 19606
[3] = tested on: Staphylococcus aureus ATCC 13709
[4] = tested on: Escherichia coli ATCC 25922

SMILES	Pa: MIC Pseudomonas aeruginosa ATCC 27853 [1]	Ab: MIC Acinetobacter baumannii ATCC 19606 [2]	Sa: MIC Staphylococcus aureus ATCC 13709 [3]	Ec: MIC Escherichia coli ATCC 25922 [4]
N=C(N)NCC/C=C(\NC(=O)[C@H](CCCCN)NC(=O)[C@H](CC(F)(F)F)NC(=O)[C@@H]1CCCN1C(=O)[C@@H](CCCN)NC(=O)CNC(=O)[C@H](CCN)NC(=O)[C@@H](NC(=O)[C@@H](N)CCCCN)[C@@H](O)CN)C(=O)O [21.11] (H-K[Dab(3S-OH)][Dab]G[dOrn]P[Abu(4,4,4-F3)]K[ΔZArg]-OH)	− (>32 μg/mL)	− (>32 μg/mL)	++ (≤8 μg/mL)	++ (≤8 μg/mL)
COc1ccc(C[C@H](NC(=O)[C@@H]2CCCN2C(=O)[C@@H](CCCN)NC(=O)CNC(=O)[C@@H](NC(=O)[C@@H](NC(=O)[C@@H](N)CCCCN)[C@@H](O)CN)[C@@H](O)CN)C(=O)N[C@@H](CCCCN)C(=O)N/C(=C\CCNC(=N)N)C(=O)O)cc1 [22.39] (H-K[Dab(3S-OH)][Dab(3S-OH)]G[dOrn]PY(Me)K[ΔZArg]-OH)	− (>32 μg/mL)	− (>32 μg/mL)	++ (≤8 μg/mL)	+ (≤32 μg/mL)
N=C(N)NCC/C=C(\NC(=O)[C@H](CCCCN)NC(=O)[C@H](Cc1cnc[nH]1)NC(=O)[C@@H]1CCCN1C(=O)[C@@H](CCCN)NC(=O)CNC(=O)[C@@H](NC(=O)[C@@H](NC(=O)[C@@H](N)CCCCN)[C@@H](O)CN)[C@@H](O)CN)C(=O)O [22.20] (H-K[Dab(3S-OH)][Dab(3S-OH)]G[dOrn]PHK[ΔZArg]-OH)	++ (≤8 μg/mL)	− (>32 μg/mL)	++ (≤8 μg/mL)	+ (≤32 μg/mL)
CN[C@@H](CCCCN)C(=O)N[C@@H](CCN)C(=O)N[C@@H](C)C(=O)NCC(=O)N[C@H](CCCN)C(=O)N1CCC[C@H]1C(=O)N[C@@H](Cc1cnc[nH]1)C(=O)N[C@@H](CCCCN)C(=O)N/C(=C\CCNC(=N)N)C(=O)N[C@@H](CCCCN)C(=O)NCCCCN [14.9] (H-[NMeK][Dab]AG[dOrn]PHK[ΔZArg]K-{NH(CH2)4NH2})	− (>32 μg/mL)	− (>32 μg/mL)	++ (≤8 μg/mL)	− (>32 μg/mL)
NCCCCNC(=O)[C@H](CCCCN)NC(=O)[C@@H](CCCCN)NC(=O)[C@H](CCCCN)NC(=O)[C@H](Cc1cnc[nH]1)NC(=O)[C@@H]1CCCN1C(=O)[C@@H](CCCN)NC(=O)CNC(=O)[C@@H](NC(=O)[C@@H](NC(=O)[C@@H](N)CCCCN)[C@@H](O)CN)[C@@H](O)CN [22.21] (H-K[Dab(3S-OH)][Dab(3S-OH)]G[dOrn]PHK[dK]K-{NH(CH2)4NH2})	− (>32 μg/mL)	− (>32 μg/mL)	++ (≤8 μg/mL)	− (>32 μg/mL)
C[C@H](NC(=O)[C@H](CCN)NC(=O)[C@@H](N)CCCCN)C(=O)NCC(=O)N[C@H](CCCN)C(=O)N1C2CCCCC2C[C@H]1C(=O)N[C@@H](Cc1cnc[nH]1)C(=O)N[C@@H](CCCCN)C(=O)N/C(=C\CCNC(=N)N)C(=O)N[C@@H](CCCCN)C(=O)NCCCCN (stereo partly shown) [14.19] (H-K[Dab]AG[dOrn][Oic(3aξ,7aξ)]HK[ΔZArg]K-{NH(CH2)4NH2})	− (>32 μg/mL)	− (>32 μg/mL)	++ (≤8 μg/mL)	− (>32 μg/mL)
C[C@H](NC(=O)[C@@H](NC(=O)[C@@H](N)CCCCN)[C@@H](O)CN)C(=O)NCC(=O)N[C@H](CCCN)C(=O)N1CC[C@H]1C(=O)N[C@@H](Cc1cccc(F)c1)C(=O)N[C@@H](CCCCN)C(=O)N/C(=C\CCNC(=N)N)C(=O)O [24.71] (H-K[Dab(3S-OH)]AG[dOrn][Aze][Phe(3-F)]K[ΔZArg]-OH)	− (>32 μg/mL)	− (>32 μg/mL)	+ (≤32 μg/mL)	+ (≤32 μg/mL)
C[C@H](NC(=O)[C@H](CCN)NC(=O)[C@@H](N)CCCCN)C(=O)NCC(=O)N[C@H](CCCN)C(=O)N1CCC[C@H]1C(=O)N[C@@H](Cc1cnc[nH]1)C(=O)N[C@@H](CCCCN)C(=O)N/C(=C\CCNC(=N)N)C(=O)N[C@@H](CCCCN)C(=O)NCCCCCN [14.5] (H-K[Dab]AG[dOrn]PHK[ΔZArg]K-{NH(CH2)5NH2})	− (>32 μg/mL)	− (>32 μg/mL)	++ (≤8 μg/mL)	+ (≤32 μg/mL)
N=C(N)NCC/C=C(\NC(=O)[C@H](CCCCN)NC(=O)[C@H](Cc1cnc[nH]1)NC(=O)[C@@H]1CCCN1C(=O)[C@@H](CCCN)NC(=O)CNC(=O)[C@H](CO)NC(=O)[C@H](CCN)NC(=O)[C@@H](N)CCCCN)C(=O)N[C@@H](CCCCN)C(=O)NCCCCN [16.1] (H-K[Dab]SG[dOrn]PHK[ΔZArg]K-{NH(CH2)4NH2})	− (>32 μg/mL)	− (>32 μg/mL)	++ (≤8 μg/mL)	− (>32 μg/mL)
N=C(N)NCC/C=C(\NC(=O)[C@H](CCCCN)NC(=O)[C@H](Cc1cnc[nH]1)NC(=O)[C@@H]1CCCN1C(=O)[C@@H](CCCN)NC(=O)CNC(=O)[C@@H](NC(=O)[C@@H](NC(=O)[C@@H](N)CCCCN)[C@@H](O)CN)[C@@H](O)CN)C(=O)NCCCCCN [22.2] (H-K[Dab(3S-OH)][Dab(3S-OH)]G[dOrn]PHK[ΔZArg]-{NH(CH2)5NH2})	+ (≤32 μg/mL)	− (>32 μg/mL)	++ (≤8 μg/mL)	++ (≤8 μg/mL)
C[C@H](NC(=O)[C@@H](NC(=O)[C@@H](N)CCCCN)[C@@H](O)CN)C(=O)NCC(=O)N[C@H](CCCN)C(=O)N1CCC[C@H]1C(=O)N[C@@H](Cc1ccncc1)C(=O)N[C@@H](CCCCN)C(=O)N/C(=C\CCNC(=N)N)C(=O)N[C@@H](CCCCN)C(=O)NCCCCN [24.19] (H-K[Dab(3S-OH)]AG[dOrn]P[4Pal]K[ΔZArg]K-{NH(CH2)4NH2})	+ (≤32 μg/mL)	− (>32 μg/mL)	++ (≤8 μg/mL)	++ (≤8 μg/mL)

Other lines, results leading:

Pa: MIC Pseudomonas aeruginosa ATCC 27853 [1]	Ab: MIC Acinetobacter baumannii ATCC 19606 [2]	Sa: MIC Staphylococcus aureus ATCC 13709 [3]	Ec: MIC Escherichia coli ATCC 25922 [4]	SMILES
− (>32 μg/mL)	− (>32 μg/mL)	++ (≤8 μg/mL)	++ (≤8 μg/mL)	COc1ccc(C[C@H](NC(=O)[C@@H]2CCCN2C(=O)[C@@H](CCCN)NC(=O)CNC(=O)[C@H](CCCN)NC(=O)[C@@H](NC(=O)[C@@H](N)CCCCN)[C@@H](O)CN)C(=O)N[C@@H](CCCCN)C(=O)N/C(=C\CCNC(=N)N)C(=O)O)cc1 [211.7] (H-K[Dab(3S-OH)][Orn]G[dOrn]PY(Me)K[ΔZArg]-OH)
− (>32 μg/mL)	− (>32 μg/mL)	++ (≤8 μg/mL)	+ (≤32 μg/mL)	C[C@H](NC(=O)[C@@H](NC(=O)[C@@H](N)CCCN)[C@@H](O)CN)C(=O)NCC(=O)N[C@H](CCCN)C(=O)N1CCC[C@H]1C(=O)N[C@@H](Cc1cnc[nH]1)C(=O)N[C@@H](CCCCN)C(=O)N/C(=C\CCNC(=N)N)C(N)=O [24.150] (H-[Orn][Dab(3S-OH)]AG[dOrn]PHK[ΔZArg]-NH2)
− (>32 μg/mL)	− (>32 μg/mL)	++ (≤8 μg/mL)	+ (≤32 μg/mL)	N=C(N)NCC/C=C(\NC(=O)[C@H](CCCCN)NC(=O)[C@H](Cc1cnc[nH]1)NC(=O)[C@@H]1CCCN1C(=O)[C@@H](CCCN)NC(=O)CNC(=O)[C@H](Cc1cnc[nH]1)NC(=O)[C@@H](NC(=O)[C@@H](N)CCCCN)[C@@H](O)CN)C(N)=O [214.1] (H-K[Dab(3S-OH)]HG[dOrn]PHK[ΔZArg]-NH2)
− (>32 μg/mL)	− (>32 μg/mL)	++ (≤8 μg/mL)	+ (≤32 μg/mL)	CC(C)NCCCC[C@H](NC(=O)[C@H](Cc1cnc[nH]1)NC(=O)[C@@H]1CCCN1C(=O)[C@@H](CCCN)NC(=O)CNC(=O)[C@H](C)NC(=O)[C@@H](NC(=O)[C@@H](N)CCCCN)[C@@H](O)CN)C(=O)N[C@H](CCCNC(=N)N)C(N)=O [24.127] (H-K[Dab(3S-OH)]AG[dOrn]PH[Lys(iPr)][dR]-NH2)
− (>32 μg/mL)	− (>32 μg/mL)	++ (≤8 μg/mL)	− (>32 μg/mL)	CNCCCC[C@H](NC(=O)[C@H](Cc1cnc[nH]1)NC(=O)[C@@H]1CCCN1C(=O)[C@@H](CCCN)NC(=O)CNC(=O)[C@H](C)NC(=O)[C@@H](NC(=O)[C@@H](N)CCCCN)[C@@H](O)CN)C(=O)N[C@H](CCCNC(=N)N)C(N)=O [24.155] (H-K[Dab(3S-OH)]AG[dOrn]PH[Lys(Me)][dR]-NH2)
